Values after ≈ are worked out from the molar mass of the structure shown. Values joined by “and” are separate entries in the source; they are usually repeats but may differ in a detail not shown here. Identical values can stand only once.
How the values were obtained:
[1] = Stability in acidic and basic conditions (TLC); assay type: physicochemical; details: for Number of TLC spots: 1 = stable
Experimental: Compounds 9–12, 15, and 19 were also tested for their stability in acidic and basic conditions. This assay was carried out for 48 h and samples were taken at six-time intervals (10 min, 1 h, 2 h, 3 h, 24 h, 48 h). Stability of the compounds was determined using the TLC method. […] In basic conditions, only compounds 10 and 15 were stable for 24 h. […] Results with details, including time of degradation of products obtained, are presented in the Supplementary (Tables S19 and S20). […]
VI. Stability in different pH conditions
Stability of chosen compounds (9-12, 15, and 19) were determined using the TLC method. Assays were performed in acidic and basic conditions and were carried out for 48 h. Samples were taken at six-time intervals (10 min., 1 h, 2 h, 3 h, 24 h, 48 h). […]
of spots observed on TLC, where 1 indicate that compound is stable (only TLC spot for proper compound was observed). Higher values point out how many products of degradation was observed, which can be calculating by subtracting one from number of spots.
Table S19. Results of chosen compounds (9-12, 15, 19) stability in acidic conditions.
Compound Number of TLC spots in defined time
Table S20. Results of chosen compounds (9-12, 15, 19) stability in basic conditions.

[2] = Water solubility (UV spectroscopy); assay type: physicochemical
Excerpt: Six representatives of 5-arylideneimidazolones (9–12, 15, 19) were chosen for the determination of water solubility. UV spectroscopy was used for the estimation of concentrations of compounds according to the method described earlier. Acquired UV absorbance, calculated means, and standard deviations for tested compounds are presented in Supplementary Table S18. Solubility results, presented in Table 6, point out that compounds from the same group (A or B, Table 1 and Table 2) with the two-ring aromatic moiety are more soluble than compounds with the fluorene motive (Group A: 9, 10, 11 vs. 12; Group B: 15 vs. 19). […] The most soluble of tested compounds was compound 15, which could be dissolved in water at a concentration of up to 205.502 mM/L.
Water solubility was obtained using UV spectroscopy method. Absorbance of tested solutions of compounds 9-12, 15, and 19, respectively in suitable dilution, in three repetitions as well as calculated arithmetic means, solubility and standard deviations are presented in Table S18. the solubility results […]
Table S18. Results of absorbance used for estimation of water solubility of tested compounds (9-12, 15, 19).
Abbreviations: A1, A2,and A3, UV absorbance in first, second, and third repetition; Amean, arithmetic mean of absorbance from three repetitions; s, standard deviation for absorbance; S, water solubility; SD – standard deviation for solubility. […]

[3] = tested on: K. aerogenes Ea-289; parameters: method as in earlier work; details: doxycycline, chloramphenicol, norfloxacin, already published, cited from earlier work
[4] = tested on: K. aerogenes CM-64; parameters: method as in earlier work; details: doxycycline, chloramphenicol, norfloxacin, already published, cited from earlier work
[5] = tested on: S. aureus ATCC 25923; parameters: method as in earlier work; details: published previously, cited from earlier work
[6] = tested on: K. aerogenes Ea-294, Ea-308; parameters: method as in earlier work; details: doxycycline, chloramphenicol, norfloxacin, already published, cited from earlier work
[7] = tested on: S. aureus ATCC 25923; parameters: method as in earlier work; details: unstarred value; published previously; cited from earlier work
[8] = tested on: AcrAB-TolC efflux pump in K. aerogenes strain Ea-289; parameters: method as in PMID 30691112; details: compound 100 µM; previously described; cited from earlier work

Structure (SMILES)	Number of TLC spots ([1]; acidic conditions, 10 min)	Number of TLC spots ([1]; acidic conditions, 1 h)	Number of TLC spots ([1]; acidic conditions, 2 h)	Number of TLC spots ([1]; acidic conditions, 3 h)	Number of TLC spots ([1]; acidic conditions, 24 h)	Number of TLC spots ([1]; acidic conditions, 48 h)	Number of TLC spots ([1]; basic conditions, 10 min)	Number of TLC spots ([1]; basic conditions, 1 h)	Number of TLC spots ([1]; basic conditions, 2 h)	Number of TLC spots ([1]; basic conditions, 3 h)	Number of TLC spots ([1]; basic conditions, 24 h)	Number of TLC spots ([1]; basic conditions, 48 h)	solubility [2]	also measured
NC1=N/C(=C\c2ccc(-c3ccccc3)cc2)C(=O)N1CCCN1CCOCC1 [Compound 15]	2	2	2	2	2	2	1	1	1	1	1	2	87600 µg/mL and 206000 µM	time stable ([1]; basic conditions): 24 h
NC1=N/C(=C\c2cccc(Oc3ccccc3)c2)C(=O)N1CCCN1CCOCC1 [Compound 16]														MIC reduction ([3]; erythromycin + compound): No effect; A (activity gain) ([3]; erythromycin): 1; MIC reduction ([4]; erythromycin + compound): No effect; A (activity gain) ([4]; erythromycin): 1; MIC reduction ([5]; oxacillin alone to oxacillin + compound): No effect; A (activity gain) ([5]; oxacillin): 1; MIC reduction ([6]; erythromycin + compound): No effect; A (activity gain) ([6]; erythromycin): 1; MIC value [7]: 0.125 mM (≈ 50.8 µg/mL); Inhibition efficiency (IE) towards extrusion of 1,2'-dNA [8]: 61%
NC1=N/C(=C\c2ccc3c(c2)Cc2ccccc2-3)C(=O)N1CCCN1CCOCC1 [Compound 19]	1	1	1	2	2	3	4	4	4	4	4	4	8530 µg/mL and 19500 µM	
